As a reminder, the inhibition is the percentage by which the read-out fell short of the control. Higher therefore signals strong suppression. The IC50 is the concentration that inhibits the measured activity by half. The low end stands for greater potency in that assay, the high end for weaker potency in that assay. The term Km denotes the substrate concentration at which the rate is half of its maximum.

Data set [1] addresses T1, 5′ AMP-activated protein kinase α1 (AMPKα1) (Homo sapiens, UniProt Q13131).
T1 construct: gene PRKAA1
Briefly: KinaseProfiler activity screen, […] inhibition at […]. Format: biochemical.

In data set [2] the target is T2, zPIP5Kα (zebrafish PIP5Kα) (Danio rerio, UniProt Q503I3).
T2 construct: gene pip5k1aa; zebrafish PIP5Kα with a C-terminal His-tag
Briefly: […]-ATP lipid kinase assay with TLC, diC16-PI4P substrate; ATP and PI4P competition. It is filed as biochemical.

In a further data set the target is T3, hPIKfyve (human PIKfyve) (Homo sapiens, UniProt Q9Y2I7).
T3 construct: full length human PIKfyve with an N-terminal FLAG tag
The experiment in a line: […]-ATP lipid kinase assay with TLC, diC16-PI3P substrate. It is filed as biochemical.

Substrate in the data set “purified protein”: CCCCCCCCCCCCCCCC(=O)NCCOP(=O)(O)OC[C@H]1OC(O)[C@H](OP(=O)(O)O)[C@@H](O)[C@H]1O
The experiment in a line: purified protein. Format: biochemical, Danio rerio. The settings on record: Mg2+, phosphorylated at the anomeric OH.

T3 sequence (Q9Y2I7 2-2098): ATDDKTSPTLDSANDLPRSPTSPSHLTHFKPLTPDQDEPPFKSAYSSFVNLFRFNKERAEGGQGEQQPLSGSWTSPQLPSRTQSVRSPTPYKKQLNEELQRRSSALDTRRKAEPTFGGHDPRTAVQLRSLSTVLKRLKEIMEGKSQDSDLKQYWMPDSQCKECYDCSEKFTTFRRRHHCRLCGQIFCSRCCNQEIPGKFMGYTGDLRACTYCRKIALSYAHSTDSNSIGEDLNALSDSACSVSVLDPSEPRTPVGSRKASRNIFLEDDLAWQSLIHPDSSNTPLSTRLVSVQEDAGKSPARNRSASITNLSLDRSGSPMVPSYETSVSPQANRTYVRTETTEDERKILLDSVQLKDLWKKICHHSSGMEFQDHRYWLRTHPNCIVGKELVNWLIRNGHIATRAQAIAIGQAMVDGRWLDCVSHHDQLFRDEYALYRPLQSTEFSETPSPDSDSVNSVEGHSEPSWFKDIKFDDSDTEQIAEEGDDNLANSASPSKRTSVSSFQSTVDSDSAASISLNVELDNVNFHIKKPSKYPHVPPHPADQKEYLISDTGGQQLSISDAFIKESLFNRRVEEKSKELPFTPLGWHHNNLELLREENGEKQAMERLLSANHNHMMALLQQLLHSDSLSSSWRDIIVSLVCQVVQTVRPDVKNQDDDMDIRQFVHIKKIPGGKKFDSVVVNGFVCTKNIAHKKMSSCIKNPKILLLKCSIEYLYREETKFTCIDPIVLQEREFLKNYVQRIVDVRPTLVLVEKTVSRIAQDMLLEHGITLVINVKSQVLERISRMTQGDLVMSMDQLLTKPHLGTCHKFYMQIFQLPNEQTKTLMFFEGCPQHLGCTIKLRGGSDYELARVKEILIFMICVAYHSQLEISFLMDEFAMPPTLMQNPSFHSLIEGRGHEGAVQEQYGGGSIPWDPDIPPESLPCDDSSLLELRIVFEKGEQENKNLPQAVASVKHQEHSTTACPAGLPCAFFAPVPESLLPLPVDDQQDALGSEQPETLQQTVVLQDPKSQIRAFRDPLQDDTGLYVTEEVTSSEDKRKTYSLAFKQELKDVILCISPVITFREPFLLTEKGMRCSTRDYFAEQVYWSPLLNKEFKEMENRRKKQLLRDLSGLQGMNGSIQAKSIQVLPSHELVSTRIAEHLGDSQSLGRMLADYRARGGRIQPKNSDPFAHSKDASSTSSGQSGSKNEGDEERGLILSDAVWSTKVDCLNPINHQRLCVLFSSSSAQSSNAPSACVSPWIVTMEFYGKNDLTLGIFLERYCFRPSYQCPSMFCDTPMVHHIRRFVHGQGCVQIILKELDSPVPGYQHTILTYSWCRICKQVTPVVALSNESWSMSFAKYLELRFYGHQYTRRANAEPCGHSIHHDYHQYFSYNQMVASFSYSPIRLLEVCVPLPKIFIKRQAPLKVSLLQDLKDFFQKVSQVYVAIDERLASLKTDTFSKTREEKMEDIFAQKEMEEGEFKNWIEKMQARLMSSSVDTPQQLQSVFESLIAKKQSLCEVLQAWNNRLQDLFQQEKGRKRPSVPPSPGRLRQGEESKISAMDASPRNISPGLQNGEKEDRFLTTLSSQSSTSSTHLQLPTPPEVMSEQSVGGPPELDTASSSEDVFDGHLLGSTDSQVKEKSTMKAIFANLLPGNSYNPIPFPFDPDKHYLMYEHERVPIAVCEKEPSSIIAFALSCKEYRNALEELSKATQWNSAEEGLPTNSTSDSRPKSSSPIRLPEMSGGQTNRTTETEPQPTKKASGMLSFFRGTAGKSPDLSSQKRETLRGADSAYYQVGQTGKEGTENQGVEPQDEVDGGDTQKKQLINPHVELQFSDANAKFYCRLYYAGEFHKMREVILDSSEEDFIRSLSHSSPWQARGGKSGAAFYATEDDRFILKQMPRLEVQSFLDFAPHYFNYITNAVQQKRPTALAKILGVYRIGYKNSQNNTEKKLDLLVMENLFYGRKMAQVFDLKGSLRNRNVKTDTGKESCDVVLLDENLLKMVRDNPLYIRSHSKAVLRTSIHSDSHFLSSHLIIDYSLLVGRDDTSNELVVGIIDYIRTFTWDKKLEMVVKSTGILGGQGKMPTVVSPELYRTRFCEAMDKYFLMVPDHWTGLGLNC
T1 sequence (Q13131 whole entry): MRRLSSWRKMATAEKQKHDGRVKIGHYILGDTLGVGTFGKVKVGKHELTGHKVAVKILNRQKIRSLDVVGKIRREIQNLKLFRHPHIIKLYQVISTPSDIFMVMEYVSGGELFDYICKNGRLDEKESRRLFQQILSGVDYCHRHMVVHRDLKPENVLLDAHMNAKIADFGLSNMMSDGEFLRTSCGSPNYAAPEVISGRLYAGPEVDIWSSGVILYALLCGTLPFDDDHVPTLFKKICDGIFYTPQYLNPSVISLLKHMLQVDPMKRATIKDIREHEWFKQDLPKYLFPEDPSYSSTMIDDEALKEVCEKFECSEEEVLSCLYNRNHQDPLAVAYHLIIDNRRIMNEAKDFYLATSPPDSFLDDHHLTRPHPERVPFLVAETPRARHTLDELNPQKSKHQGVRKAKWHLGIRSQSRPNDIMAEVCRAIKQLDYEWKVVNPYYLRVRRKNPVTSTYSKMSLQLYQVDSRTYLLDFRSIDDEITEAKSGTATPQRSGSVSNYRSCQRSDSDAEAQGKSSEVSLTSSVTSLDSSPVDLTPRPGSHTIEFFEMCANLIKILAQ
T1 sequence (Q9Y478 2-270 partner): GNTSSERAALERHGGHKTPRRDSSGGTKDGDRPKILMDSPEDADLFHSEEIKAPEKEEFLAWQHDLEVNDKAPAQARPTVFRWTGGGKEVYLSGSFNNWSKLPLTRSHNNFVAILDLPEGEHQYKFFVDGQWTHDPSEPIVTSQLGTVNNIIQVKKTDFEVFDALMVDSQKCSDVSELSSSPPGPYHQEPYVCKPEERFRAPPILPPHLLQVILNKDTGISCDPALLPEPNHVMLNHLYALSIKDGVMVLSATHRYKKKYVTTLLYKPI
T1 sequence (P54619 whole entry partner): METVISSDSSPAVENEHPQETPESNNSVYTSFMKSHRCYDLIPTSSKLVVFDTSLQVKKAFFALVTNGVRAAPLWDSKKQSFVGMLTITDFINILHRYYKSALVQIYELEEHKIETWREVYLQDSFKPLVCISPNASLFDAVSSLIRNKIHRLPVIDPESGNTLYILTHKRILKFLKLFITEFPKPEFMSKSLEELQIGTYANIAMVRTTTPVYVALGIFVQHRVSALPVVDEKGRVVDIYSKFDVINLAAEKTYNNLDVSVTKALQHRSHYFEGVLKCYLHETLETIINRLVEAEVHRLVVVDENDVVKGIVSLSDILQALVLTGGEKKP

In data set [1], `CCCCCCCCCCCCCCCC(=O)NCCOP(=O)(O)OC[C@H]1O[C@@H](OC)[C@H](OP(=O)(O)O)[C@H]2OC(C)(C)O[C@H]21` [compound 6] displayed an inhibition at 20 µM of 50%. The IC50 is about 15 µM in data set [2] and 6.2 µM against hPIKfyve (human PIKfyve).

B1: zPIP5Kα (zebrafish PIP5Kα) (Danio rerio) (protein)
chain: MAAPAVVSTDGADSSTPGNRKMASSEGLSTLGSSQTNKKTLGHRGIDPTGETTYKKTTSSALKGAIQLGITHSVGSLSQKPERDVLMQDFEVVESIFFPSQGSSSTPGHHHGDFKFKTYAPIAFRYFREMFGIRPDDYLYSLCNEPLIELSNPGASGSLFYVSSDDEFIIKTVQHKEAEFLQTLLPGYFMNLNQNMRTLLPKFYGLYCVQADGKNIRIVVMNNLLPRAVPMHLKFDLKGSTYKRRASPKERSKGVPTYKDLDFMQDMPEGILLENDHYTALSRTMQRDCRVLQSFKIMDYSLLVGIHILHRAGEEASTAVPDTQKKGQGQKPLYCTAIESIQGESKSKTSPQPYESMGGIPAFNSKGERLLVFIGIIDILQSYRLVKKLEHSWKALLHDGDTVSVHRPSFYADRFQKFMCSTVFRKSQLKTSPSKRSRLGPVSAGKKSNIAVSGQSHQQSLPVAAELTQSQLWSSEDPQGDSGMQTARPDLLPQQVAEDDITSSSADTTLSATSLVNSRLSTNTPVLSRSSVAGHSSEESLDMDVISLSEIVPQTSTSE
notes: zebrafish PIP5Kα with a C-terminal His-tag
As for B1, the Michaelis constant (Km) in the data set “purified protein” worked out at 10 ± 1.3 µM.

The values above are taken from paper PMC10099810, “Rational Design and Synthesis of D‐galactosyl Lysophospholipids as Selective Substrates and non‐ATP‐competitive Inhibitors of Phosphatidylinositol Phosphate Kinases” (Chemistry (Weinheim an Der Bergstrasse, Germany), 2022).
